Laboratory results reported in patent publication EP2325187A1, “THE HYDROSULFATE OF PRASUGREL, ITS PHARMACEUTICAL COMBINATION AND USES THEREOF” (priority 2008, dated 2010).

What was measured:
rats = assay: Determination of the rate of hemorrhage (hyperemia, oedema, hemorrhage in the gastric mucosa); format: in vivo
Procedure: (§1) […] male SD rats weighted 200-300g are provided by the Experimental Animal Center of Lunan Pharmaceutical Group corporation and are divided randomly into 5 groups with 10 rats in each group. The animals are acclimatized for one week before experiment. The animals in the excipient group (equivalent volume of physiological saline), prasugrel maleate group (10mg/kg), prasugrel bisulfate group (10mg/kg) are administered by gastric gavage once each day for 7 days.
After the rate of inhibiting aggregation is determined, the rats are sacrificed and dissected. The appearances of hyperemiam, oedema, hemorrhage in the gastric mucosa are examined with the aid of a magnifier, and the rats developed with hyperemiam, oedema, hemorrhage in the gastric mucosa are recorded into corresponding test groups as cases of hemorrhage.

[1] = tested on: platelet aggregation induced by ADP; assay: Inhibition of platelet aggregation induced by ADP (platelet-rich plasma taken from dosed rats); format: in vivo
Procedure: as §1
(§2) Two days after administered as above, the animals are starved over night. One hour after administered on the second day, the animals are anaesthetized by intraperitoneal injection of urethane, and then celiotomized to separate the abdominal aorta. A polyethylene cannula is inserted to collect 5 ml of blood into a test tube (in the tube is placed beforehand 0.5 ml of 3.8% sodium citrate solution, i.e. the ratio of the anticoagulant solution and blood is 1:9). The whole blood is centrifuged at 1000 rpm for 4 min. 1 ml of platelet-rich plasma (PRP) is taken. The remaining liquid is centrifuged at 3000 rpm for further 8 min. 1 ml of platelet-poor plasma (PPP) is taken. The two samples are placed separately in two plastic test tubes under a constant temperature of (37±0.1)°C. Using ADP (30 ul/tube) and collagen (30 ul/tube) as aggregation inducers, the maximum aggregation intensity is determined and the inhibition rate is calculated. Rate of inhibiting aggregation = (aggregation intensity for excipient group-aggregation intensity for experimental group)/aggregation intensity for excipient group × 100% [formula]

[2] = tested on: platelet aggregation induced by collagen; assay: Inhibition of platelet aggregation induced by collagen (platelet-rich plasma taken from dosed rats); format: in vivo
Procedure: as §1, §2

[3] = dog, in vivo, 10 mg/kg
Text: Six healthy male beagle dogs of around 7-month-old, without statistical difference in their weights, are used in the experiments and fed normally for 2 weeks without receiving any drug. Six beagle dogs are divided randomly into prasugrel bisulfate group and prasugrel hydrochloride group, with 3 dogs in each group. Following the process disclosed in Experimental Example 1 of Chinese Patent Publication No. CN1214031A, the pharmacokinetic parameters of S-methylate in the plasma of the dogs in each group after administration are determined (the administration dosage for both groups is 10mg/kg).

[4] = rats, 10mg/kg by gastric gavage, n=10 per group, gastric mucosa

Compound: CC(=O)Oc1cc2c(s1)CCN(C(C(=O)C1CC1)c1ccccc1F)C2 (stereo not drawn) [Prasugrel Bisulfate, 2-acetyloxy-5-(α-cycloproylcarbonyl-2-fluorobenzyl)-4,5,6,7-tetrahydrothieno[3,2-C]pyridine bisulfate]
- rate of hemorrhage (rats; rat, in vivo): significantly lower than that in the prasugrel maleate group
- Cases of Hemorrhage (rats; [4]): 1
- Rate of Hemorrhage (%) (rats; [4]): 10%
- ADP Aggregation Intensity (%) ([1]; 10mg/kg by gastric gavage once each day, inducer ADP 30 ul/tube, maximum aggregation intensity): 0.336±0.075 %
- inhibition to platelet aggregation induced by ADP ([1]; 10mg/kg, result in words): very significant inhibition
- inhibition at 10 mg/kg ([1]; Rattus norvegicus, Platelet, po, 10mg/kg by gastric gavage once each day, inducer ADP 30 ul/tube, relative to excipient group, read-out: ADP Inhibition Rate (%)): 48.5 ± 10.6%
- Collagen Aggregation Intensity (%) ([2]; 10mg/kg by gastric gavage once each day, inducer collagen 30 ul/tube, maximum aggregation intensity): 0.346±0.083 %
- inhibition to platelet aggregation induced by collagen ([2]; 10mg/kg, result in words): very significant inhibition
- inhibition at 10 mg/kg ([2]; Rattus norvegicus, Platelet, po, 10mg/kg by gastric gavage once each day, inducer collagen 30 ul/tube, relative to excipient group, read-out: Collagen Inhibition Rate (%)): 54.3 ± 13.5%
- AUC [3]: 82.3 ± 7.6 µg·min/mL
- Cmax [3]: 1210 ± 130 ng/mL
- bioavailability [3]: better bioavailability than prasugrel hydrochloride
